Test results as given in US10286038B2, “Lysosome membrane protein 2 (LIMP-2) based peptides and related uses” (Northwestern University, priority 2016, dated 2019).
Numbering of substitutions follows the chain as printed.

Assays:
[1] = test system: α-synuclein in H4 cells stably overexpressing α-synuclein; settings: doxycycline, 74 hrs post incubation, compared to 3×D control peptide
Method: For Western blotting 20-40 μg of protein was loaded on a 10% Tris-SDS (made in house) or 4-12% Bis-Tris/NuPAGE Novex gel system (Thermo Fisher Scientific), subjected to electrophoresis, and blotted on nitrocellulose or PVDF membranes [2 h at 4° C. and 0.85 ampere (A) constant]. Membranes were blocked in 5% (wt/vol) milk Tris-buffered saline (TBS-T, pH 7.4, 0.1% Tween-20), and primary antibodies were incubated overnight (for more details on antibody dilutions see Table 4). PVDF membranes for α-synuclein detection were postfixed in 0.4% paraformaldehyde (PFA) (Polysciences Inc.) for 20 min after blotting. Signals were normalized to the respective loading controls [actin, neuronal-specific enolase (NSE), or GAPDH] […] Primary antibodies were incubated overnight at 4° C. After three washing steps in TBS-T the membranes were incubated for 1 h with the respective secondary antibody at room temperature. After the membrane was washed again three times with TBS-T, the signal of the antibody was detected using a chemiluminescence detection system (LAS4000; GE Healthcare Life Sciences) or by scanning on an infrared imager (Odyssey; LI-COR Biosciences).
The α-synuclein turn-over rate in the presence of the LIMP-2-derived peptides was assessed in human neuroglioma cells (H4), stably overexpressing α-synuclein. […]

[2] = target: T1, recombinant N370S mutant GC (Homo sapiens, UniProt P04062, N409S); experiment: peptide pulldown of recombinant N370S mutant GC; format: binding; settings: cell-free system
T1 sequence (P04062 40-536 N409S): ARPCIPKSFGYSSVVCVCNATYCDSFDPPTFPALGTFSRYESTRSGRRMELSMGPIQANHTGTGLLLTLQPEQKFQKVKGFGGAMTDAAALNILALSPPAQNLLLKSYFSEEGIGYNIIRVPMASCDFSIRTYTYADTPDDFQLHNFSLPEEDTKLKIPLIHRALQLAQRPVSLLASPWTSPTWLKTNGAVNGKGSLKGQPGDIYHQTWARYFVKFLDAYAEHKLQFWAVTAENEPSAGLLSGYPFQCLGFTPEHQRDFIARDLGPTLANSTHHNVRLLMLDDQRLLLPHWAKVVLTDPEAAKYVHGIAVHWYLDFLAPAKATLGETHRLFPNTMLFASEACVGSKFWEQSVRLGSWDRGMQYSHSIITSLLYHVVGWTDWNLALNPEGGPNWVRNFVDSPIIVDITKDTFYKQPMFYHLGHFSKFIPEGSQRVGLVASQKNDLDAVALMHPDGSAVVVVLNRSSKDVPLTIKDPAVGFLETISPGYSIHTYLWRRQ
Method: For the pulldown of recombinant protein utilizing LIMP-2-derived peptides, 2 nmol of protein (GC, LAMAN and BSA) was incubated overnight at 4° C. with the ten-fold molecular amount (20 nmol) of biotinylated LIMP-2-derived peptides (helix 5, 3×D as well as TAT-peptides (see Table 1)) at neutral pH. The total incubation volume was 250 μl (50 mM NaPhosphate buffer, 150 mM NaCl, pH7). ‘High Capacity Streptavidin Beads’ (Thermo Fisher Scientific, Waltham, USA) were blocked with 1% BSA solution and equilibrated with the NaPhosphate buffer. For each pulldown 50 μl of beads were utilized and incubated with 200 μl enzyme/peptide mixture for 30 min. at room temperature. The remaining 50 μl of the enzyme/peptide samples were prepared for SDS-PAGE (INPUT fraction). After incubation of the beads with the enzyme/peptide mixture the samples were centrifuged for 1 min. at 1,500×g at 4° C. The supernatant was removed and stored at 4° C. (UNBOUND fraction). Subsequently, the beads were washed three times with NaPhosphate buffer followed by centrifugation at 4,000 rpm at room temperature. […] The INPUT and BOUND fractions of the pulldown experiments were loaded on a NuPAGE® Novex® 4-12% Bis-Tris gels (Thermo Fisher Scientific, Waltham, USA), subjected to electrophoresis and stained with coomassie (Brilliant Blue, R-250; BioRad). After destaining the gels were scanned.

[3] = target: T2, lysosomal GC of living H4 cells (Homo sapiens, UniProt P04062); experiment: live-cell lysosomal GC activity assay in H4 cells; format: cell-based; settings: 10 μM TAT peptide, relative to buffer control
T2 construct: Lysosomal GC activity of living H4 cells measured in vivo after incubation with uptake-optimized TAT-peptides; endogenous in cells; host or cells: H4 human neuroglioma cells (for the 74 h course: stably overexpressing α-synuclein)
T2 sequence (P04062 40-536): T1 sequence (P04062 40-536 N409S) with S370N
Method: Lysosomal GC activity in living cells was assessed by applying a drug-response assay in the presence and absence of a lysosomal inhibitor (bafilomycin A1; Invivogen) dissolved in DMSO (24). TAT peptides (10 μM) were added to the cell medium for 1 h; then H4 cells (see Table 5) were incubated with 100 μg/mL cell-permeable artificial substrate 5-(pentafluorobenzoylamino) fluorescein di-β-D-glucopyranoside (PFB-FDGlu) (Life Technologies, Thermo Fisher Scientific) for another hour. Cells were washed with warm medium; then the medium was replaced with phenol red-free neurobasal medium (Life Technologies, Thermo Fisher Scientific). The fluorescence intensity was recorded every 30 min for β-4 h in a SpectraMax i3 plate reader (Molecular Devices) (PFB-FDGlu: excitation=485 nm, emission=530 nm). After the final reading, cells were fixed in 4% formaldehyde/PBS and were stained with CellTag 700 (LICOR Biosciences) according to the manufacturer's instructions to measure cell volume. The plate was scanned on an Odyssey infrared imager (LI-COR Biosciences). Fluorescence intensities were normalized to cell volume and graphed versus time. Whole-cell activity was obtained by calculating the area below the DMSO curve. Nonlysosomal activity corresponds to the area under the bafilomycin A1 curve. Lysosomal activity was obtained by subtracting both areas (FIG. 6H).

[4] = test system: endogenous GC in Cos 7 cells; settings: biotinylated peptide, neutral pH
Method: For pulldown of endogenous and overexpressed GC from N2a cell lysates 20 nmol of LIMP-2-derived peptide (Helix 5 and 3×D) was incubated with 50 μl cell lysate at 4° C. overnight. The cells were harvested in EBC-buffer (Table 3). After blocking and equilibration of the streptavidin beads (see above) the cell lysate/peptide mixtures were added to the beads for 30 min. at room temperature. The supernatant was removed. After extensive washing of the beads with NaPhosphate buffer, the bound peptides and proteins were released from the beads by incubation with Laemmli buffer (see above). After centrifugation for 2 min. at 17,000×g the supernatant was removed (BOUND fraction) and subjected to SDS-Page and Western-blotting. An antibody against human GC (α-hGC, for details see Table 4) was used for detection.

Substance: Biotin-Ttds-KFERQLREIIEAMLKAYQQKLFVTHTVDEYGRKKRRQRRR [helix 5 TAT-peptide]
- α-synuclein levels [1]: significant reduction
- precipitation of recombinant N370S mutant GC [2]: as efficiently as recombinant wild-type GC
- elevation of GC activity within lysosomes of living cells [3]: 18%

Substance: Biotin-Ttds-LREIIEAMLKAYQQKLFVTHTVDE [helix 5 peptide]
- co-precipitation of endogenous GC from cellular lysates [4]: specifically co-precipitated
